Measured values published in patent US6566545B2, “Menthol derivatives and process for preparing the same” (Pacific Corporation, priority 2001, dated 2003).

Experiments:
[1] = test system: back of New Zealand White Rabbit; assay: Retinol-induced skin irritation on rabbit back, Draize Primary Irritation Index; format: in vivo; settings: for Irritation Index: Draize Primary Irritation Index, 0.01% agent applied with 1000 I.U. retinol as irritation source, twice a day, rabbit back skin; for Relative Ratio: irritation relative to blank applied only with retinol, 0.01% agent
Description: The hairs on the back of New Zealand White Rabbit were removed and fed with sufficient water and nutrition. At the areas of 1.5 cm×1.5 cm on the back of the rabbit, menthol, menthol 3-aminopropylphosphate (MPA) and 1000 I.U. of retinol as irritation source were applied respectively. The number of applying positions for each rabbit was 8˜10, and the agents were applied twice a day with 6 hours of time interval. The applied positions were exposed to air. Erythema, rash or edema was measured everyday after 48 hours has passed from the first apply during 1 week to observe the irritation. According to the “Primary Irritation Index” of Draize, the degree of irritation was determined. Relative irritation was calculated with the ratio to the blank sample that applied only with retinol, and the results are shown in Table 1 and FIG. 1.

phosphatase = assay: Hydrolysis by phosphatase in phosphoric buffer pH 7.4, HPLC; format: in vitro ADME; settings: 3-aminopropylphosphoric acid measured by HPLC (FIG. 2)
Description: To clarify the activity of menthol 3-aminopropylphosphate obtained in Example 2, the hydrolysis of the menthol 3-aminopropylphosphate by a phosphatase in the skin was observed. That is, the preparation of menthol and 3-aminopropylphosphoric acid by the hydrolysis was observed.
3-aminopropylphosphate and phosphatase were added to phosphoric buffer solution with pH 7.4, then, hydrolysis was performed. The phosphatase used above was Alkaline Phosphate manufactured by SIGMA, Co., Ltd.
The amount of the 3-aminopropylphosphoric acid prepared by the hydrolysis was measured by means of HPLC, and the results are shown in FIG. 2.

[2] = Solubility in aqueous and aqueous mixed solution
Text: To observe the solubility of the menthol 3-aminopropylphosphate in the aqueous phase, solubility were measure in aqueous and aqueous mixed solution.
Menthol was used as relativity group.

Structure (SMILES)	Irritation Index [1]	Relative Ratio [1]	hydrolysis by phosphatase (phosphatase)	solubility ([2]; H2O) [%]	solubility ([2]; H2O:1,3-BG = 1:1) [%]	solubility ([2]; H2O:Ethanol = 1:1) [%]	solubility ([2]; H2O:Ethanol = 5:1) [%]	aqueous solubility compared with menthol ([2]; in words)
C[C@]12CCC(=O)C=C1CC[C@@H]1[C@@H]2[C@@H](O)C[C@@]2(C)[C@H]1CC[C@]2(O)C(=O)CO [hydrocortisone]	5.10	0.53	–	–	–	–	–	–
CC1CCC(C(C)C)C(OP(=O)(O)OCCCN)C1 (stereo not drawn) [menthol 3-aminopropyl phosphate, Menthol 3-Aminopropylphosphate]	6.07	0.63	hydrolyzed by the phosphatase of the skin and formed menthol and 3-aminopropylphosphoric	0.3	5	6	1	increased very much compared with menthol itself
CC1CCC(C(C)C)C(O)C1 (stereo not drawn) [menthol]	9.34	0.97	–	–	–	–	–	–
